1 substance from patent US20230218618A1, “ADMINISTRATION OF SUMO-ACTIVATING ENZYME INHIBITOR AND ANTI-CD38 ANTIBODIES” (MILLENNIUM PHARMACEUTICALS, INC., priority 2020, published 2023) can be followed below.

The test has as its system Daudi human Burkitt’s Lymphoma cell line. Nature of the test: Study 7: Daudi xenograft human Burkitt's lymphoma subcutaneous tumor model (daratumumab or AB79). Type of test: in vivo, CB17 SCID mice. How it is done: Low tumor volumes can cause problems with the data analysis, so all measurements below 25 cubic mm (including 0 values) were excluded from the analysis. After this exclusion step, the tumor volume was assumed to follow an exponential growth model. More specifically, for a given animal and treatment group,
Pairwise comparisons were performed, where the mean growth rates were compared for various pairs of treatment conditions. The results were summarized using the growth rate inhibition (GRI). Suppose µT and µC are the mean tumor growth rates for the treatment and reference groups, respectively. Define
Here, µAB, µA, µB, and µControl are the mean growth rates for the combination, drug A, drug B, and control groups, respectively. As before, µv is the mean tumor growth rate for the vehicle group, which in most cases is the same as the control group. The standard error of the synergy score was calculated as the square root of the sum of squared standard errors across the four groups. The degrees of freedom were estimated using the Welch-Satterthwaite equation. A hypothesis test was performed to determine if the synergy score differed from 0. P-values were calculated by dividing the synergy score by its standard error and tested against a t-distribution (two-tailed) with the above-calculated degrees of freedom. A P value of less than 0.05 is statistically significant.
The combination results can be interpreted as follows. Statistically significant negative synergy scores indicate a synergistic combination (“Syn.”). Statistically significant positive synergy scores indicate a sub-additive combination (“Sub-add.”) when the combination performs better (i.e. has a lower growth rate) than the best performing single agent. Statistically significant positive synergy scores indicate an antagonistic combination (“Antag.”) when the combination performs worse than the best performing single agent. Scores that are not statistically significant should be considered additive (“Add.”).
Daudi is a human Burkitt’s Lymphoma cell line. A Daudi human xenograft tumor model was generated by subcutaneous inoculation with 2.0 × 10^6 Daudi cells (cell suspension) in 7 weeks old female CB17 SCID mice (Charles River Laboratories, 251 Ballardvale St., Wilmington, MA) in the flank. When the mean tumor volume reached approximately 110 mm3, the animals were randomized into one vehicle control and six treatment groups (n=8/group). Mice were then dosed with 20% HPβCD or Compound I-263a and/or daratumumab or AB79 over a 21-day period. Tumor growth and body weight were measured twice per week during the treatment and post-treatment periods, and mice were humanely euthanized once they had reached their humane endpoint.
A 0.75 mg/mL stock solution of I-263a was formulated weekly in 20% HPβCD and administered intravenously (IV) based on an average body weight using a 0.2 mL dosing volume. Final doses of I-263a received were 7.5 mg/kg. I-263a was administered on a BIW schedule for 3 weeks (Days 1, 4, 8, 11, 15, and 18). Daratumumab (anti-CD38 antibody) (Myoderm Medical Supplies, 48 E Main St., Norristown, PA 19401) was purchased at the beginning of the study and stored at 4° C. according to manufacturer’s instructions. Final dose of daratumumab received was 7.5 mg/kg based on average body weight. Daratumumab was administered intraperitoneally (IP) using a 0.1 mL dosing volume, on a BIW schedule for 3 weeks (Days, 1, 4, 8, 11, 15, and 18). AB79 was formulated on the day of dosing in 0.9% saline and administered intraperitoneally (IP) using a 0.1 mL dosing volume, on a BIW schedule for 3 weeks (Days, 1, 4, 8, 11, 15, and 18). Final dose of AB79 was 7.5 mg/kg based on average body weight.
Tumors were measured twice weekly using Vernier calipers. Tumor volumes were calculated using standard equation: V = W2 × L/2, where V = volume, W = width, and L = length for the tumor. […]
(In xenograft studies the graft and the host belong to different species.)

For “AB79: human monoclonal antibody that binds specifically to the CD38 transmembrane glycoprotein”, the “Tumor Volume on Day 22 (±SEM)” value (AB79 7.5 mg/kg BIW IP) is listed as 1033.8 (±208.8). Further, the GRI% (AB79 7.5 mg/kg BIW IP, vs vehicle) was found to be 29%. The “Tumor growth relative to vehicle-treated tumors (pairwise comparison)” value (each agent 7.5 mg/kg BIW, I-263a p = 0.105, daratumumab p < 0.001, AB79 p = 0.002, both combinations p < 0.001, data up to Day 22) was “tumor growth inhibition”.
